Data reported in BindingDB's records for doi:10.1016/s0960-894x(01)00493-0 (National Cancer Institute-Frederick, 2001).

Molecular target: Urokinase-type plasminogen activator (Homo sapiens) (UniProt P00749)
Test: Compound was tested for microPa) Urokinase-type plasminogen activator from human urine

- Ki: 500 µM
SMILES: CC[C@H](C)[C@@H]1NC(=O)[C@@H]2CCCN2C(=O)[C@@H]2CCCN2C(=O)[C@H]([C@@H](C)CC)NC(=O)[C@H](CO)NC(=O)[C@H](CCCCN)NC(=O)[C@H]([C@@H](C)O)NC(=O)[C@@H]2CSSC[C@H](NC1=O)C(=O)N[C@@H](Cc1ccccc1)C(=O)N1CCC[C@H]1C(=O)N[C@@H](CC(=O)O)C(=O)NCC(=O)N[C@@H](CCCNC(=N)N)C(=O)N2
